Measured values taken from ChEMBL document CHEMBL1201862, “PubChem BioAssay data set” (2004).
Calls of active or inactive are those of the source.

Tests used:
[1] = biological target: Large T antigen (Simian virus 40, UniProt P03070); format: functional, Betapolyomavirus macacae;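 further: Confirmatory-stage PubChem screen for compounds that inhibit SV40 T antigen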
[2] = biological target: Paired box protein Pax-8 (Homo sapiens, UniProt Q06710); assay: inhibitors of PAX8-driven TPO luciferase reporter, dose response, RMG-I cells, cherry-pick (AID 687027); format: functional, cell-based;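 further: luciferase reporter driven by Pax8 target thyroperoxidase promoter measured by SteadyGlo luminescence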
[3] = NIH-3T3 fibroblast cytotoxicity, dose response, cytotoxicity control, cell-based, fluorescence, Alamar Blue, secondary assay (AID 2327); format: functional;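 further: NIH-3T3 mouse fibroblasts cultured with fluconazole at 8 µg/mL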
[4] = Shn3 3'UTR reporter inhibitors, dose response, cell-based, Clone20 osteoblasts, firefly luciferase, cherry-picked (AID 624132); format: functional;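 further: firefly luciferase luminescence from reporter carrying the Shn3 3'UTR in osteoblasts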
[5] = control 3'UTR Renilla luciferase suppression, dose response, counter-screen for Shn3 inhibitor project, cell-based, Clone20-Shn3RL, cherry-picked (AID 624133); format: functional
[6] = biological target: T1, Short transient receptor potential channel 4 (Mus musculus, UniProt Q9QUQ5); assay: mouse TRPC4 channel inhibitors, dose response, cell-based, HEK293 TRPC4/mu-opioid, Fluo-4 calcium (AID 434942); format: functional;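 further: potency of inhibitors blocking the TRPC4 calcium response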
T1 sequence (Q9QUQ5 whole entry): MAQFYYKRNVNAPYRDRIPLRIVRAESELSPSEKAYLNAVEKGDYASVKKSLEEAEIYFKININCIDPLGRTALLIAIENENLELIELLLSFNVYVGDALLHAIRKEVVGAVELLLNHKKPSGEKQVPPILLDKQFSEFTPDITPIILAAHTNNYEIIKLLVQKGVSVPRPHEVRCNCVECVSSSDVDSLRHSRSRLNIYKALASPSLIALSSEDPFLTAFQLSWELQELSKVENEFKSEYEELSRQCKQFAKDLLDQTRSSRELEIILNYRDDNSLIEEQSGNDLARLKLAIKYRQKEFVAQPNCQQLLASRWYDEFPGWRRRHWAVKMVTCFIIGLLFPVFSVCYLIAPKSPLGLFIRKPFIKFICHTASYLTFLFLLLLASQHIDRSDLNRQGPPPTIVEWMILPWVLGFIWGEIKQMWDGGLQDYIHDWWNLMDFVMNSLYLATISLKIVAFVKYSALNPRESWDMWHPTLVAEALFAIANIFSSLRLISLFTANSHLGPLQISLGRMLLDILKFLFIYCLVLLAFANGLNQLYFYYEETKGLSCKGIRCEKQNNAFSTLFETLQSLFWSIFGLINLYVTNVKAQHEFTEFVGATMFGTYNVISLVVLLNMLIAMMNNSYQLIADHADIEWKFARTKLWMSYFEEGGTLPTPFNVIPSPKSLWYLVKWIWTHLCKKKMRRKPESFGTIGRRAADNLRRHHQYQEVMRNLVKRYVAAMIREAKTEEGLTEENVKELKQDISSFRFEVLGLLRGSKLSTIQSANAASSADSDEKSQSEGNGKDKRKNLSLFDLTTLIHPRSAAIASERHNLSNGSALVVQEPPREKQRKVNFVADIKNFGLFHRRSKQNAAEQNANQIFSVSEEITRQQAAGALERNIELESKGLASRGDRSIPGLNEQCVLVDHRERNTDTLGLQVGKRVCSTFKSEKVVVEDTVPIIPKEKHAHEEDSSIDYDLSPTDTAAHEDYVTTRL

[7] = cytotoxicity toward NIH3T3 fibroblasts, dose response, counter-screen, cell-based, ATP luminescence, mouse fibroblasts (AID 2010); format: functional;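 further: cells exposed to compound for about 90 hours before reading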
[8] = biological target: T2, Heat shock factor protein 1 (Mus musculus, UniProt P38532); assay: HSF1 potentiators in luciferase reporter cells, confirmation, cell-based, NIH3T3, luminescence, dose retest (AID 435004); format: functional;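 further: stress induced by proteasome inhibitor MG132 added 30 min after compound; luciferase reporter driven by HSF1 response element in NIH3T3 cells; actives raise luminescence as potentiators of the MG132 stress response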
T2 sequence (P38532 whole entry): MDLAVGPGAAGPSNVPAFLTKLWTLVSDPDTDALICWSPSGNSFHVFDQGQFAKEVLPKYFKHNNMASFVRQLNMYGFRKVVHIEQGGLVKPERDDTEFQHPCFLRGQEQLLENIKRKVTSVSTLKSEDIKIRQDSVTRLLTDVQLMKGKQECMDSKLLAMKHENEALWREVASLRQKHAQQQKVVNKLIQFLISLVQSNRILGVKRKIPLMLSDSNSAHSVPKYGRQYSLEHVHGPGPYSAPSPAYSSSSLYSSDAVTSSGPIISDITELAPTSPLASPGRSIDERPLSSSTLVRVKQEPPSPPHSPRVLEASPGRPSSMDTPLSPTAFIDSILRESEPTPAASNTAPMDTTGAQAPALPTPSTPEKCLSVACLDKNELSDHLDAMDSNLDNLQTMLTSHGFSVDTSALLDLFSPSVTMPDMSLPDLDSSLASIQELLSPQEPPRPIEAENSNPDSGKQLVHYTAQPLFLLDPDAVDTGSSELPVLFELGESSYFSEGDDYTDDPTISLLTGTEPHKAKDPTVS

[9] = inhibitors of intracellular T. cruzi replication, confirmation, NIH3T3 host cells, beta-gal luminescence (AID 2044); format: functional, cell-based;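 further: intracellular parasites grown in NIH/3T3 mouse fibroblasts as host cells; luminescent beta-galactosidase reporter signal from transgenic T. cruzi replicating inside host cells; inhibitors lower the luminescence signal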
[10] = biological target: T3, Protein skinhead-1 (Caenorhabditis elegans, UniProt P34707); format: functional
T3 sequence (P34707 whole entry): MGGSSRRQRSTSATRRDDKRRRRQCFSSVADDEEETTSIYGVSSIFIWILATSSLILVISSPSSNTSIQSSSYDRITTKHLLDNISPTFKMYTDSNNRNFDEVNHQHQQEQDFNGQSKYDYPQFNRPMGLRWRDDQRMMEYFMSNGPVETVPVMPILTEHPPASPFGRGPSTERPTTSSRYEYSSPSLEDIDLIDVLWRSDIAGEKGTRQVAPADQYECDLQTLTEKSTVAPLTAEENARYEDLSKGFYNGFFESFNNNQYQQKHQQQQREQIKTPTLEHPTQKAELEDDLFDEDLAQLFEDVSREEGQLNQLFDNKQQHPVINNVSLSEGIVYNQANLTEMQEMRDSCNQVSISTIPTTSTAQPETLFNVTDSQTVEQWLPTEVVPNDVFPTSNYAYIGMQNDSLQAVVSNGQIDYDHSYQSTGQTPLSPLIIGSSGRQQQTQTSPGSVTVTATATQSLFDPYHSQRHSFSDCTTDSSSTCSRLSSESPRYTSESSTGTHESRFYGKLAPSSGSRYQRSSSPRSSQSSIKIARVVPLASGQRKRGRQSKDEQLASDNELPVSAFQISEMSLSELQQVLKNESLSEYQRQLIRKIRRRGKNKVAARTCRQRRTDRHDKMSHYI

[11] = system: Streptococcus; assay: Group A Streptococcus viability loss, dose response, counter-screen for streptokinase expression inhibitor project, luminescence, BacTiterGlo (AID 1915); format: functional, organism-based;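 further: potency for reduction of bacterial viability or growth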
[12] = system: Streptococcus sp. 'group A'; assay: growth inhibition of control SK(-) GAS strain, dose response, counter-screen for streptokinase expression inhibitor project, luminescence, kanamycin, BacTiterGlo, confirmation (AID 1900); format: functional, organism-based
[13] = Luminescence Cell-Based Dose Retest to Confirm Inhibitors of Cancer Stem Cells. [Related pubchem assays (depositor defined):AID2717, AID2721]; format: functional; settings: Homo sapiens
[14] = biological target: T4, Streptokinase A (Streptococcus pyogenes serotype M1, UniProt P10520); assay: S. pyogenes streptokinase expression inhibitors, potency, dose response, plasminogen activation absorbance, OD405 (AID 1914); format: functional, Streptococcus pyogenes M1 GAS;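 further: secreted streptokinase activity via plasminogen activation per viability signal from cell pellet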
T4 sequence (P10520 whole entry): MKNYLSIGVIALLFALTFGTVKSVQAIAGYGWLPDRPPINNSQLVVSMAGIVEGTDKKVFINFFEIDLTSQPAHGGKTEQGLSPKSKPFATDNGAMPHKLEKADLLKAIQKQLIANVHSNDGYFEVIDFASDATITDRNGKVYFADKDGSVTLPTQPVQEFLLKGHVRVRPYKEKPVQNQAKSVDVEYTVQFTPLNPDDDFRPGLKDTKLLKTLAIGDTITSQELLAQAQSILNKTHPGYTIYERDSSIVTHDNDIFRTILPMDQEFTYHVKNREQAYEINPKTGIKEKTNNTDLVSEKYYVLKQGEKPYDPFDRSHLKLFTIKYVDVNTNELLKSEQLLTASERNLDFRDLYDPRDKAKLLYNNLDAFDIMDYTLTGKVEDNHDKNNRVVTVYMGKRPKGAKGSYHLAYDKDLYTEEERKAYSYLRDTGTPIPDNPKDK

[15] = system: INS1; assay: beta cell apoptosis inhibitors, cytokine rescue, dose response, luminescence, retest (AID 449756); format: functional, cell-based; settings: Rattus norvegicus;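 further: cell death triggered by IL-1 beta plus TNF-alpha plus IFN-gamma mixture; protective hits raise ATP signal compared with cytokine alone wells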
[16] = inhibitors of clade B AD8 Env fusion, dose response, cell-based, cherry-pick (AID 652062); format: functional;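 further: luciferase signal from cell-cell fusion driven by HIV-1 clade B AD8 Env; potency is for inhibitors of fusion seen as a drop in luminescence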
[17] = inhibitors of HIV Env-driven cell fusion, dose response, cherry-pick (AID 652057); format: functional, cell-based
[18] = Luminescence Cell-Based Dose Confirmation HTS to Identify Inhibitors of Platelet Dense Granule Release. [Related pubchem assays: 1663 (Primary HTS), 1678 (Summary of Project)]; format: functional
[19] = biological target: Luciferin 4-monooxygenase (Photinus pyralis, UniProt P08659); assay: firefly luciferase enzyme inhibitors, dose response, biochemical, luminescence (AID 1891)
[20] = biological target: T5, Rac GTPase-activating protein 1 (Homo sapiens, UniProt Q9H0H5); assay: MgcRacGAP GTPase-activating activity inhibitors, confirmation, biochemical, ADP Hunter fluorescence, primary and confirmatory (AID 624330); format: functional
T5 sequence (Q9H0H5 whole entry): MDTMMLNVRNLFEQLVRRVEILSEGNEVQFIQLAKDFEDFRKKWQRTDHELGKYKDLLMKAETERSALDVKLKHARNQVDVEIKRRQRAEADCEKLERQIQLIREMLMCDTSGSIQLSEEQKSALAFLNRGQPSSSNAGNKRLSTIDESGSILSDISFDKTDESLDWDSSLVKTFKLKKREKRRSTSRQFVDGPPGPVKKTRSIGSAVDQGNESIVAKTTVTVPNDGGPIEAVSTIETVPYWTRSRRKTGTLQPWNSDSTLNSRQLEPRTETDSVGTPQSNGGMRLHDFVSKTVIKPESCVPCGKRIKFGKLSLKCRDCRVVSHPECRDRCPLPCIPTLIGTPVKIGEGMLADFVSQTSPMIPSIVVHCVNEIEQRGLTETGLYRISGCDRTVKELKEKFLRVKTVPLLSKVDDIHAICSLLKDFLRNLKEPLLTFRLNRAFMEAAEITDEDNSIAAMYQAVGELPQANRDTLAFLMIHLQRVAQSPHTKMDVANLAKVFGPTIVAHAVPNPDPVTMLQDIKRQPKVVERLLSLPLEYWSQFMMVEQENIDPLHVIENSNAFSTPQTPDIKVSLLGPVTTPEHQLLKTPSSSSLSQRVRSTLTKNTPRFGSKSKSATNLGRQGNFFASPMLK

[21] = P. falciparum Dd2 growth inhibitors, dose response, SYBR Green, cherry-picked samples (AID 1159567); format: functional, cell-based

Chain of Large T antigen (P03070 whole entry): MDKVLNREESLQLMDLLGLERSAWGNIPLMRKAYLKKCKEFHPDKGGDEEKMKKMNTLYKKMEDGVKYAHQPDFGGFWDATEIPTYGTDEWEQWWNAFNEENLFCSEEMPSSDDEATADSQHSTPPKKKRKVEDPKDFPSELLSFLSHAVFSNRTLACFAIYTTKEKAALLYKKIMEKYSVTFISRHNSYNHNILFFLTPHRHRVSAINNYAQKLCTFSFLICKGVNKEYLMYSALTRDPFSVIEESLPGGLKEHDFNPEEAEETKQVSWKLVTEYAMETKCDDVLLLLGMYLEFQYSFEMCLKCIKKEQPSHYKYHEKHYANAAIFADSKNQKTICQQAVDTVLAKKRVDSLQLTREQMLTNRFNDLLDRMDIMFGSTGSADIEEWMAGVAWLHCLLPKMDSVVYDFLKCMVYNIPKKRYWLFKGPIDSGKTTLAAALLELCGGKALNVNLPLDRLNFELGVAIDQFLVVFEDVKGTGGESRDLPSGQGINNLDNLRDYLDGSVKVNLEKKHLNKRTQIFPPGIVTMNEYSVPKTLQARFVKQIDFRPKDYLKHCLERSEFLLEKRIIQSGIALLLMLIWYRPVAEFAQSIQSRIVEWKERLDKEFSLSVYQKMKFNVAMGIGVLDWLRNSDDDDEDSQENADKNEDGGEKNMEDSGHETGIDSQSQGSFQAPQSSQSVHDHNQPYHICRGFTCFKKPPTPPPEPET
Chain of Paired box protein Pax-8 (Q06710 whole entry): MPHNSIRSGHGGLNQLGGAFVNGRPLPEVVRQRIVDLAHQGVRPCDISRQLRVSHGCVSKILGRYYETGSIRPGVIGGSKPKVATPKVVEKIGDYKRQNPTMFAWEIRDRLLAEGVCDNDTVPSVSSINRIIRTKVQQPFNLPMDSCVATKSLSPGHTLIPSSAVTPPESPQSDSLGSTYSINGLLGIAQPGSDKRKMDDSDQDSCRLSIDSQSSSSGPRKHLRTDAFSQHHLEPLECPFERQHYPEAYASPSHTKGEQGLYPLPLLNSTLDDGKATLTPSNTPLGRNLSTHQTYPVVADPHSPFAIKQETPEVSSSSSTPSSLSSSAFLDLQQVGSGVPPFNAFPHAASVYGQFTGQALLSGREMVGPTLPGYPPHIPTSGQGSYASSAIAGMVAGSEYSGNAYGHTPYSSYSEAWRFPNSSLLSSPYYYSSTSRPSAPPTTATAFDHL
Chain of Luciferin 4-monooxygenase (P08659 whole entry): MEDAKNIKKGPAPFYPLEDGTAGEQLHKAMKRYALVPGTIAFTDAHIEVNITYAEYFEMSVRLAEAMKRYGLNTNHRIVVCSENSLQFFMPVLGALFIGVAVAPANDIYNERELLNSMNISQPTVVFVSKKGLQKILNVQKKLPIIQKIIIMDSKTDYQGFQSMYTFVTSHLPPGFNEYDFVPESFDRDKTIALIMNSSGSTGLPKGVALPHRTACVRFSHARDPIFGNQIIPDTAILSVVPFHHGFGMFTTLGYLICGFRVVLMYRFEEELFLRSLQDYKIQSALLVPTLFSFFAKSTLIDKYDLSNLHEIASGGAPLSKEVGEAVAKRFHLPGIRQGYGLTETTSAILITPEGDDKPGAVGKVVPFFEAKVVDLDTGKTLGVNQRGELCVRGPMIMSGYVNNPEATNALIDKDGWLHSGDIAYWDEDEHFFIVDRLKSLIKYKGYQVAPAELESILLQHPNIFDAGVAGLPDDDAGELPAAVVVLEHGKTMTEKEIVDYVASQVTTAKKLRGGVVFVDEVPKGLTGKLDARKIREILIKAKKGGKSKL

O=S(=O)(c1ccc(NC(=S)N2CCN(c3ccc(O)cc3)CC2)cc1)N1CCOCC1
IC50 [1]: 9.69 µM (active)

CCc1ccc(CNC(=O)C2CCCN(c3nnc(C)c4c(C)n(-c5ccccc5)nc34)C2)cc1 (stereo not drawn)
AC50 [2]: 9.17 µM (active)
EC50 [3]: 14.7 µM (inconclusive)

N#C/C(=C(\O)Cc1ccccc1)c1nc2ccccc2[nH]1
AC50 [4]: > 70 µM (inactive)
AC50 [5]: 23.2 µM (active)

CCCc1nc(SC2CCCC2)c2c(=O)n(C)c(=O)n(C)c2n1
EC50 [6]: 4.73 µM (active)

CN(C)c1ccc(C(=O)c2ccc(N(C)C)c(N)c2)cc1N
IC50 [1]: 19.3 µM (active)

O=C(Nc1ccccc1N1CCN(C(=O)c2ccc(Cl)cc2)CC1)c1cccc([N+](=O)[O-])c1
EC50 [7]: > 60 µM (not active)
EC50 [8]: > 260 µM (inactive)
EC50 [9]: 1.34 µM (active)
EC50 [6]: 0.376 µM (active)

CC1CCN(C(C)C(=O)Nc2ccccc2-c2ccccc2)CC1 (stereo not drawn)
IC50 [10]: > 100 µM (inactive)
EC50 [6]: 5.31 µM (active)

CC(C)Cc1cc(CN2CCCC(CO)(Cc3cccc(Cl)c3)C2)[nH]n1 (stereo not drawn)
EC50 [6]: 2.11 µM (active)

CCn1nc(C)c(CN2CCCC(CO)(Cc3cccc(Cl)c3)C2)c1C (stereo not drawn)
EC50 [7]: > 30 µM (not active)
EC50 [9]: 0.247 µM (active)
EC50 [6]: 1.06 µM (active)

Cc1ccc(N=C(S)Nc2ccc(C(C)C)cc2)cc1S(=O)(=O)N1CCCCCC1
EC50 [11]: > 150 µM (not active)
EC50 [12]: 13.2 µM (active)
AC50 [13]: 2.1 µM (active)
EC50 [14]: > 150 µM (not active)

COC(=O)c1ccc(COc2ccccc2/C=C(\C#N)C(=O)Nc2c(C)cccc2C)cc1
AC50 [13]: 2.46 µM (active)
AC50 [15]: 28.4 µM (active)

Cc1ccc(C(=O)C2=C(O)C(=O)N(Cc3cccnc3)C2c2ccc(Cl)c(Cl)c2)o1 (stereo not drawn)
EC50 [6]: 6.68 µM (active)

CC/C(=N\c1ccccc1O)C1=C(O)CC(c2ccccc2)CC1=O (stereo not drawn)
IC50 [1]: 15.2 µM (active)

Cn1cccc1/C=N/N1CCN(Cc2ccccc2)CC1
IC50 [1]: 17.6 µM (active)

CCC(=O)N(C)C[C@@H]1Oc2cc(C#Cc3ccccc3)ccc2S(=O)(=O)N([C@@H](C)CO)C[C@H]1C
AC50 [16]: 30.3 µM (active)
AC50 [17]: 26.2 µM (active)

Cc1ccc(S(=O)(=O)N(C)C[C@@H]2Oc3ccc(NC(=O)Cc4ccccc4)cc3CC(=O)N([C@H](C)CO)C[C@@H]2C)cc1
AC50 [16]: 2.32 µM (active)
AC50 [17]: < 0.26 µM (active)

Cc1ccc(N/N=C/c2ccc3c(c2)OCCO3)cc1Cl
EC50 [18]: 21 µM (active)
EC50 [19]: > 112 µM (not active)
EC50 [3]: 40.1 µM (active)

O=C1CCCC(O)=C1/C=N/c1ccc(O)cc1
IC50 [20]: 16.7 µM (active)
IC50 [1]: 12.3 µM (active)

COc1ccc2c3c([nH]c2c1)[C@@H](CO)N(C(=O)Nc1cccc(F)c1)CC31CN(CC2CCOCC2)C1
AC50 [21]: 4.22 µM (active)

C/C=C/c1ccc([C@H]2[C@H](CO)N(S(=O)(=O)Cc3ccccc3)C23CN(C(=O)C2CCCC2)C3)cc1
AC50 [21]: 5.3 µM (active)

COc1ccc(C#Cc2ccc3c(c2)[C@@H]2[C@@H](CCN2C(=O)C2CCC2)[C@H](CO)N3)cc1
AC50 [21]: 5.78 µM (active)
